The target of this experiment is T1, human glucagon receptor (hGCGR) (Homo sapiens, UniProt P47871).
T1 construct: host or cells: HEK293
Description: HTRF second messenger cAMP response experiment (called cell viability test) in HEK293 cells with glucagon peptide segment. The class given is cell-based. The settings on record: for inhibitory activity of glucagon receptor (in words, from cAMP response curves): FIG. 5 / FIG. 14. On the procedure:
In order to determine the antagonistic activity of the compound A on the glucagon receptor in the above embodiments, a cell viability test is carried out. The specific implementation is as follows.
A known human glucagon receptor (hGCGR) antagonist drug is selected as a positive control, and the compound A in the above embodiments, a glucagon peptide segment (that is, human full-length glucagon), and human embryonic kidney cells containing target receptor molecules are mixed. The glucagon peptide segment binds to hGCGR to activate the hGCGR signaling pathway and release the second messenger cAMP. The compound A acts as an antagonist to inhibit the activity of hGCGR.
In an exemplary embodiment, a known hGCGR antagonist drug (L-168,049) is selected as a positive control. […] In addition, in view of the human glucagon receptor on the cell membrane of human embryonic kidney cells HEK293, HEK293 is used to test the drug activity of the human glucagon antagonist. In this embodiment, different concentrations of compound A of the present disclosure and the positive control are respectively mixed with glucagon peptide segments and HEK293 cells, the second messenger cAMP is detected through homogeneous time resolved fluorescence (HTRF), and a half maximal inhibitory concentration value of each compound is calculated according to the intensity value of HTRF.
In an exemplary embodiment, the activity of the compound A is tested using the HTRF technique. Specifically, after activation of the glucagon receptor by the glucagon peptide segment, the second messenger cAMP is released from the glucagon receptor cells, the second messenger cAMP may be detected by HTRF, and the half maximal inhibitory concentration (IC50) of the tested compound may be calculated according to the fluorescence intensity.
In an exemplary embodiment, 11 identical concentration gradients are set for the compounds A1 and A2 respectively. The activities of the compounds A1 and A2 are determined by the HTRF second messenger cAMP response experiment in triplicate.
Step S910. Select an antagonist drug of hGCGR as a positive control, and mix each target drug small molecule, a glucagon peptide segment, and human embryonic kidney cells containing the target receptor molecule. The glucagon peptide segment binds to hGCGR to activate the hGCGR signaling pathway and release the second messenger cAMP. The target drug molecule acts as an antagonist to inhibit the activity of hGCGR.
In an exemplary embodiment, an antagonist drug (such as L-168,049) of hGCGR is selected as a positive control. In addition, in view of the human glucagon receptor on the cell membrane of human embryonic kidney cells (such as HEK293), HEK293 may be used to test the drug activity of the human glucagon antagonist. The target drug small molecule, the glucagon peptide segment, and the HEK293 cells containing the target receptor molecule are mixed. The glucagon peptide segment is used to bind to hGCGR to activate the hGCGR signaling pathway and promote the release of the second messenger cAMP. The target drug molecule acts as an antagonist to inhibit the activity of hGCGR.
Step S920. Detect the second messenger cAMP through HTRF, and determine a half maximal inhibitory concentration value of each target drug small molecule according to an intensity value of HTRF.
In an exemplary embodiment, the activity of each target drug small molecule (such as 30 target drug small molecules shown in Table 2) is tested by using the HTRF technique. Specifically, after activation of the glucagon receptor by the glucagon peptide segment, the second messenger cAMP is released from the glucagon receptor cells, the second messenger cAMP may be detected by HTRF, and the half maximal inhibitory concentration (IC50) of the drug molecule may be calculated according to the fluorescence intensity. […]

[1] abbreviates: concentration gradient LogM −5.954243, HEK293 cells, glucagon peptide segment, HTRF cAMP, triplicate columns.
Where [2] appears, read: concentration gradient LogM −5.477121, HEK293 cells, glucagon peptide segment, HTRF cAMP, triplicate columns.
The mark [3] stands for this setting: concentration gradient LogM −6.908485, HEK293 cells, glucagon peptide segment, HTRF cAMP, triplicate columns.

A word on the IC50: it is the concentration needed to halve the response being measured.

Several values for one entry are separate records, joined by “and”; a condition that tells them apart may be missing. Equal entries are not always repeated.

T1 sequence (P47871 26-477): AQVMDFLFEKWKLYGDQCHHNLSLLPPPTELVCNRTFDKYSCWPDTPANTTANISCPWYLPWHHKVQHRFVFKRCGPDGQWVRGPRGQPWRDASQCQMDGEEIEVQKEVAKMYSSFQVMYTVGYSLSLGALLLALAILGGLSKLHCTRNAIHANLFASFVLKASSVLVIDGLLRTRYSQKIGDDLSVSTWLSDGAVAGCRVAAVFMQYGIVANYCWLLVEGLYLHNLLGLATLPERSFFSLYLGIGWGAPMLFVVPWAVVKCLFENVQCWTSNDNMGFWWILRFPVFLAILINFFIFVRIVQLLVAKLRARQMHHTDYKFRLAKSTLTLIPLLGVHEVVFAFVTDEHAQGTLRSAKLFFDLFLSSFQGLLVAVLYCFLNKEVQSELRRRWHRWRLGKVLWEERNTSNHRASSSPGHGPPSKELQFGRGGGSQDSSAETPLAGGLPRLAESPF

In turn, `Cn1c(CNC(=O)c2cccs2)nnc1SCC(=O)Nc1ccc(Cl)cc1` [Compound C29] showed an IC50 greater than 10 µM.
As to `O=C(COC(=O)CCNS(=O)(=O)c1ccc(Cl)cc1)NC(=O)NCc1ccco1` [Compound C18], the IC50 was greater than 10 µM. The Inhibition percentage under setting [1] was −6.593% and −12.6979% and −7.936%.
In turn, `O=C(COC(=O)CCNC(=O)c1ccsc1)NC(=O)NCc1cccs1` [Compound C20] gave an IC50 greater than 10 µM.
For `CSc1cccc(NC(=O)c2c(O)c3sccc3[nH]c2=O)c1` [Compound C14], the half-maximal inhibitory concentration (IC50) was found to be 0.422 µM and the “inhibitory activity of glucagon receptor (in words, from cAMP response curves)” value is “have the activity”. Also, the “inhibitory activity of glucagon receptor (in words, from cAMP response curves)” value (listed as A2) is given as “good inhibitory activity of glucagon receptor”. The Inhibition percentage (concentration gradient LogM −5, HEK293 cells, glucagon peptide segment, HTRF cAMP, triplicate columns) was 103.2945% and 102.1097% and 103.2736%. The Inhibition percentage (concentration gradient LogM −5, triplicate, HEK293, cAMP HTRF, listed as A2) was 103.2945 percentage and 102.1097 percentage and 103.2736 percentage. Also, the Inhibition percentage under setting [2] was 106.1285% and 105.9119% and 107.3553%. For the same molecule, under “concentration gradient LogM −5.477121, triplicate, HEK293, cAMP HTRF, listed as A2”, the Inhibition percentage was 106.1285 percentage and 105.9119 percentage and 107.3553 percentage. Moreover, the Inhibition percentage under setting [1] is 84.32% and 92.48% and 91.05%. Further, the Inhibition percentage (concentration gradient LogM −5.954243, triplicate, HEK293, cAMP HTRF, listed as A2) is 84.32 percentage and 92.48 percentage and 91.05 percentage. For the same molecule, the Inhibition percentage (concentration gradient LogM −6.431364, HEK293 cells, glucagon peptide segment, HTRF cAMP, triplicate columns) was 40.16% and 62.74% and 47.65%. The Inhibition percentage (concentration gradient LogM −6.431364, triplicate, HEK293, cAMP HTRF, listed as A2) is 40.16 percentage and 62.74 percentage and 47.65 percentage.
As to `O=C(CCNC(=O)c1ccccc1)NCc1cccc(NC(=O)C2CC2)c1` [Compound C16], the IC50 is greater than 10 µM. In addition, under setting [3], the Inhibition percentage was −5.221% and −7.477% and −6.358%. In addition, the Inhibition percentage (concentration gradient LogM −8.81697, HEK293 cells, glucagon peptide segment, HTRF cAMP, triplicate columns) is −7.7562% and −6.836% and −15.6271%.
`NS(=O)(=O)c1ccc(NC(=S)NNC(=S)NC2CCCCC2)cc1` [Compound C1] returned a half-maximal inhibitory concentration (IC50) greater than 10 µM. The Inhibition percentage under setting [2] is −14.4564% and −9.717% and −14.5956%. Moreover, the Inhibition percentage (concentration gradient LogM −8.339849, HEK293 cells, glucagon peptide segment, HTRF cAMP, triplicate columns) was 23.36% and 11.78% and 18.98%.
In the case of `COc1cc(NC(=O)CNC(=O)CNC(=O)c2cccs2)c(OC)cc1Cl` [Compound C26], the IC50 was greater than 10 µM.
Same read-out and setting: the figure for `CS(=O)(=O)NCCOc1ccc(S(=O)(=O)NCCOc2ccccc2)cc1` [Compound C28] is greater than 10 µM.
Take `COc1ccc(C(=O)NC(=S)Nc2ccc(NC(=S)NC(C)=O)cc2)cc1Cl` [Compound C3]: the half-maximal inhibitory concentration (IC50) is greater than 10 µM. Besides, the Inhibition percentage under setting [3] was 5.05% and 4.705% and 12.02%.
Take `CCC(=O)NC(=S)Nc1ccc(NC(=S)NC(=O)c2ccccc2OC)cc1` [Compound C8]: the half-maximal inhibitory concentration (IC50) was greater than 10 µM.
For the molecule `CN1C(=O)Cc2cc(S(=O)(=O)CCC(=O)NCCc3ccccc3)ccc21` [Compound C10], the IC50 is greater than 10 µM. In addition, the Inhibition percentage under setting [1] was 1.692% and 1.059% and 6.715%. The Inhibition percentage under setting [3] was −33.073% and −31.3707% and −29.8413%.

Values taken from patent publication US12441739B2, “Glucagon receptor antagonist and use thereof” (LANZHOU UNIVERSITY, priority 2021, dated 2025).
